Reference: patent US20070116781A1, “Hydrogen Cyanamide Pesticide Formulations” (priority 2005, published 2007)

Experiments:
all weeds = experiment: Herbicidal activity, cyanamide and propionic acid, pre-emergence, covered pots; assay type: in vivo
Description: (§1) The weeds used in these tests were grown from a standard weed seed pack of common annual and perennial weeds representing an extreme weed situation. The weeds included yellow nutsedge (Cyperus esculentus), crabgrass (Digitaria sanguinalis), pigweed (Amaranthus spp.), momingglory (Ipomoea spp.), sicklepod (Senna obtusifolia) and other annual weeds. Observations of the effects on the weed population as a whole were made, and individual observations were made for yellow nutsedge, crabgrass, and sicklepod. Stock solutions of hydrogen cyanamide at 1.25% by weight and propionic acid at 5.0% by weight, both in water, were prepared, the hydrogen cyanamide from a phosphate-buffered 50% aqueous solution. […] Data analyses were performed in the same manner as Example 1. The results expressed in weeds per pot are listed in Table V for all weeds, Table VI for yellow nutsedge, Table VII for crabgrass, and Table VIII for sicklepod, all at various application rates for both hydrogen cyanamide and propionic acid.

yellow nutsedge [1] = experiment: as above; assay type: in vivo, Cyperus esculentus
Description: as §1

crabgrass = experiment: as above; assay type: in vivo, Digitaria sanguinalis
Description: as §1

sicklepod [2] = experiment: as above; assay type: in vivo, Senna obtusifolia
Description: as §1

yellow nutsedge [3] = experiment: Herbicidal activity, cyanamide and citric acid, pre-emergence, covered pots; assay type: in vivo, Cyperus esculentus
Description: (§2) The weeds used in these tests were grown from a standard weed seed pack of common annual and perennial weeds representing an extreme weed situation. The weeds included crabgrass (Digitaria sanguinalis), yellow nutsedge (Cyperus esculentus), […] (Ipomoea spp.), pigweed (Amaranthus spp.), and other annual weeds. Observations of the effects on the weed population as a whole were made, and individual observations were made for crabgrass, yellow nutsedge, sicklepod, morningglory, and pigweed. Stock solutions of hydrogen cyanamide at 1.25% by weight and citric acid at 5.0% by weight, both in water, were prepared, the hydrogen cyanamide from a phosphate-buffered 50% aqueous solution. […] Data analyses were performed in the same manner as Example 1. The results expressed in weeds per pot are listed in Table XIV for all weeds, Table XV for crabgrass, Table XVI for yellow nutsedge, Table XVII for sicklepod, Table XVIII for morningglory, and Table XIX for pigweed, all at various application rates for hydrogen cyanamide, with and without citric acid.

sicklepod [4] = experiment: as above; assay type: in vivo, Senna obtusifolia
Description: as §2

morningglory = experiment: as above; assay type: in vivo, Ipomoea spp.
Description: as §2

[5] = 8 d after treatment, cyanamide 75 mg/kg soil
[6] = 8 d after treatment, cyanamide 150 mg/kg soil
[7] = 14 d after treatment, cyanamide 75 mg/kg soil
[8] = 14 d after treatment, cyanamide 150 mg/kg soil
[9] = 20 d after treatment, cyanamide 75 mg/kg soil
[10] = 20 d after treatment, cyanamide 150 mg/kg soil
[11] = 27 d after treatment, cyanamide 75 mg/kg soil
[12] = 27 d after treatment, cyanamide 150 mg/kg soil
[13] = 13 d after treatment, cyanamide 50 mg/kg soil
[14] = 13 d after treatment, cyanamide 100 mg/kg soil
[15] = 13 d after treatment, cyanamide 150 mg/kg soil
[16] = 13 d after treatment, cyanamide 200 mg/kg soil
[17] = 13 d after treatment, cyanamide 250 mg/kg soil
[18] = 19 d after treatment, cyanamide 50 mg/kg soil
[19] = 19 d after treatment, cyanamide 100 mg/kg soil
[20] = 19 d after treatment, cyanamide 150 mg/kg soil
[21] = 19 d after treatment, cyanamide 200 mg/kg soil
[22] = 19 d after treatment, cyanamide 250 mg/kg soil
[23] = 26 d after treatment, cyanamide 50 mg/kg soil
[24] = 26 d after treatment, cyanamide 100 mg/kg soil
[25] = 26 d after treatment, cyanamide 150 mg/kg soil
[26] = 26 d after treatment, cyanamide 200 mg/kg soil
[27] = 26 d after treatment, cyanamide 250 mg/kg soil

SMILES: N#CN [Cyanamide, hydrogen cyanamide]
- Weeds Per Pot: All Weeds (all weeds; [5]): 2.6
- Weeds Per Pot: All Weeds (all weeds; [6]): 0.6
- Weeds Per Pot: All Weeds (all weeds; [7]): 8.7
- Weeds Per Pot: All Weeds (all weeds; [8]): 4.6
- Weeds Per Pot: All Weeds (all weeds; [9]): 15.1
- Weeds Per Pot: All Weeds (all weeds; [10]): 9.9
- Weeds Per Pot: All Weeds (all weeds; [11]): 17
- Weeds Per Pot: All Weeds (all weeds; [12]): 13.3
- Weeds Per Pot: Yellow Nutsedge (yellow nutsedge [1]; [5]): 1.4
- Weeds Per Pot: Yellow Nutsedge (yellow nutsedge [1]; [6]): 0.1
- Weeds Per Pot: Yellow Nutsedge (yellow nutsedge [1]; [7]): 3.6
- Weeds Per Pot: Yellow Nutsedge (yellow nutsedge [1]; [8]): 2.4
- Weeds Per Pot: Yellow Nutsedge (yellow nutsedge [1]; [9]): 4.6
- Weeds Per Pot: Yellow Nutsedge (yellow nutsedge [1]; [10]): 3.4
- Weeds Per Pot: Yellow Nutsedge (yellow nutsedge [1]; [11]): 6.9
- Weeds Per Pot: Yellow Nutsedge (yellow nutsedge [1]; [12]): 6.1
- Weeds Per Pot: Crabgrass (crabgrass; [5]): 0
- Weeds Per Pot: Crabgrass (crabgrass; [6]): 0
- Weeds Per Pot: Crabgrass (crabgrass; [7]): 3.3
- Weeds Per Pot: Crabgrass (crabgrass; [8]): 0
- Weeds Per Pot: Crabgrass (crabgrass; [9]): 8.6
- Weeds Per Pot: Crabgrass (crabgrass; [10]): 3.7
- Weeds Per Pot: Crabgrass (crabgrass; [11]): 7.7
- Weeds Per Pot: Crabgrass (crabgrass; [12]): 4
- Weeds Per Pot: Sicklepod (sicklepod [2]; [5]): 1
- Weeds Per Pot: Sicklepod (sicklepod [2]; [6]): 0.4
- Weeds Per Pot: Sicklepod (sicklepod [2]; [7]): 1.9
- Weeds Per Pot: Sicklepod (sicklepod [2]; [8]): 2.1
- Weeds Per Pot: Sicklepod (sicklepod [2]; [9]): 2
- Weeds Per Pot: Sicklepod (sicklepod [2]; [10]): 2.7
- Weeds Per Pot: Sicklepod (sicklepod [2]; [11]): 2.4
- Weeds Per Pot: Sicklepod (sicklepod [2]; [12]): 3.1
- Weeds Per Pot: Yellow Nutsedge (yellow nutsedge [3]; [13]): 0.9
- Weeds Per Pot: Yellow Nutsedge (yellow nutsedge [3]; [14]): 0.4
- Weeds Per Pot: Yellow Nutsedge (yellow nutsedge [3]; [15]): 0.1
- Weeds Per Pot: Yellow Nutsedge (yellow nutsedge [3]; [16]): 0
- Weeds Per Pot: Yellow Nutsedge (yellow nutsedge [3]; [17]): 0
- Weeds Per Pot: Yellow Nutsedge (yellow nutsedge [3]; [18]): 2.4
- Weeds Per Pot: Yellow Nutsedge (yellow nutsedge [3]; [19]): 0.6
- Weeds Per Pot: Yellow Nutsedge (yellow nutsedge [3]; [20]): 0.6
- Weeds Per Pot: Yellow Nutsedge (yellow nutsedge [3]; [21]): 0
- Weeds Per Pot: Yellow Nutsedge (yellow nutsedge [3]; [22]): 0
- Weeds Per Pot: Yellow Nutsedge (yellow nutsedge [3]; [23]): 2.9
- Weeds Per Pot: Yellow Nutsedge (yellow nutsedge [3]; [24]): 1.7
- Weeds Per Pot: Yellow Nutsedge (yellow nutsedge [3]; [25]): 1.0
- Weeds Per Pot: Yellow Nutsedge (yellow nutsedge [3]; [26]): 0
- Weeds Per Pot: Yellow Nutsedge (yellow nutsedge [3]; [27]): 0
- Weeds Per Pot: Sicklepod (sicklepod [4]; [13]): 1.3
- Weeds Per Pot: Sicklepod (sicklepod [4]; [14]): 0.9
- Weeds Per Pot: Sicklepod (sicklepod [4]; [15]): 0.3
- Weeds Per Pot: Sicklepod (sicklepod [4]; [16]): 0
- Weeds Per Pot: Sicklepod (sicklepod [4]; [17]): 0
- Weeds Per Pot: Sicklepod (sicklepod [4]; [18]): 1.7
- Weeds Per Pot: Sicklepod (sicklepod [4]; [19]): 0.7
- Weeds Per Pot: Sicklepod (sicklepod [4]; [20]): 0.4
- Weeds Per Pot: Sicklepod (sicklepod [4]; [21]): 0.3
- Weeds Per Pot: Sicklepod (sicklepod [4]; [22]): 0
- Weeds Per Pot: Sicklepod (sicklepod [4]; [23]): 1.6
- Weeds Per Pot: Sicklepod (sicklepod [4]; [24]): 0.7
- Weeds Per Pot: Sicklepod (sicklepod [4]; [25]): 0.4
- Weeds Per Pot: Sicklepod (sicklepod [4]; [26]): 0.3
- Weeds Per Pot: Sicklepod (sicklepod [4]; [27]): 0.1
- Weeds Per Pot: Morningglory (morningglory; [13]): 0
- Weeds Per Pot: Morningglory (morningglory; [14]): 0
- Weeds Per Pot: Morningglory (morningglory; [15]): 0
- Weeds Per Pot: Morningglory (morningglory; [16]): 0
- Weeds Per Pot: Morningglory (morningglory; [17]): 0
- Weeds Per Pot: Morningglory (morningglory; [18]): 0
- Weeds Per Pot: Morningglory (morningglory; [19]): 0
- Weeds Per Pot: Morningglory (morningglory; [20]): 0
- Weeds Per Pot: Morningglory (morningglory; [21]): 0
- Weeds Per Pot: Morningglory (morningglory; [22]): 0
- Weeds Per Pot: Morningglory (morningglory; [23]): 1.6
- Weeds Per Pot: Morningglory (morningglory; [24]): 0.7
- Weeds Per Pot: Morningglory (morningglory; [25]): 0.4
- Weeds Per Pot: Morningglory (morningglory; [26]): 0.3
- Weeds Per Pot: Morningglory (morningglory; [27]): 0.1
